According to the NIST ThermoML archive (doi:10.1016/j.jct.2019.01.027):
Numbers after ± are expanded uncertainties. One block for each compound: values may come before it.

Conditions: Liquid, Ebulliometric method (Recirculating still)

Compound: Cc1ccc(C)cc1 [1,4-dimethylbenzene]
vapor or sublimation pressure (411.45 K): 101.3 ± 1.2 kPa

Compound: CCO [ethanol]
vapor or sublimation pressure (351.45 K): 101.3 ± 1.2 kPa

Compound: COC(=O)OC [dimethyl carbonate]
vapor or sublimation pressure (363.35 K): 101.3 ± 1.2 kPa

Other lines, results leading:

vapor or sublimation pressure (418.35 K): 101.3 ± 1.2 kPa
Compound: CCCCOC(=O)CC [butyl propanoate]

vapor or sublimation pressure (389.55 K): 101.3 ± 1.2 kPa
Compound: CC(=O)OCC(C)C [2-methylpropyl ethanoate]
